These results are taken from article PMC5574184 (Journal of medicinal chemistry, 2016).

“Also recorded” adds a separate entry of the source. Bounds are passed on as bounds.

Series [1] has as its target HDAC1 (Homo sapiens, UniProt Q13547). The experiment in a line: ELISA-based HDAC activity assay. It counts as biochemical.
Series [2] has as its target HDAC2 (Homo sapiens, UniProt Q92769). The experiment in a line: ELISA-based HDAC activity assay. The class given is biochemical. For orientation: ELISA stands for enzyme-linked immunosorbent assay.
Series [3] addresses HDAC3 (Homo sapiens, UniProt O15379). The experiment in a line: ELISA-based HDAC activity assay. It counts as biochemical.
For series [4], the system named is 60 NCI cell lines. The experiment in a line: NCI-60 dose response assay. It counts as cell-based, human. The following applies: for GI50 in the dose response assay (in words): most of the NCI-60 cell lines.
The target in series [5] is T1, HDAC6 (Homo sapiens, UniProt Q9UBN7).
T1 sequence (Q9UBN7 1-1215): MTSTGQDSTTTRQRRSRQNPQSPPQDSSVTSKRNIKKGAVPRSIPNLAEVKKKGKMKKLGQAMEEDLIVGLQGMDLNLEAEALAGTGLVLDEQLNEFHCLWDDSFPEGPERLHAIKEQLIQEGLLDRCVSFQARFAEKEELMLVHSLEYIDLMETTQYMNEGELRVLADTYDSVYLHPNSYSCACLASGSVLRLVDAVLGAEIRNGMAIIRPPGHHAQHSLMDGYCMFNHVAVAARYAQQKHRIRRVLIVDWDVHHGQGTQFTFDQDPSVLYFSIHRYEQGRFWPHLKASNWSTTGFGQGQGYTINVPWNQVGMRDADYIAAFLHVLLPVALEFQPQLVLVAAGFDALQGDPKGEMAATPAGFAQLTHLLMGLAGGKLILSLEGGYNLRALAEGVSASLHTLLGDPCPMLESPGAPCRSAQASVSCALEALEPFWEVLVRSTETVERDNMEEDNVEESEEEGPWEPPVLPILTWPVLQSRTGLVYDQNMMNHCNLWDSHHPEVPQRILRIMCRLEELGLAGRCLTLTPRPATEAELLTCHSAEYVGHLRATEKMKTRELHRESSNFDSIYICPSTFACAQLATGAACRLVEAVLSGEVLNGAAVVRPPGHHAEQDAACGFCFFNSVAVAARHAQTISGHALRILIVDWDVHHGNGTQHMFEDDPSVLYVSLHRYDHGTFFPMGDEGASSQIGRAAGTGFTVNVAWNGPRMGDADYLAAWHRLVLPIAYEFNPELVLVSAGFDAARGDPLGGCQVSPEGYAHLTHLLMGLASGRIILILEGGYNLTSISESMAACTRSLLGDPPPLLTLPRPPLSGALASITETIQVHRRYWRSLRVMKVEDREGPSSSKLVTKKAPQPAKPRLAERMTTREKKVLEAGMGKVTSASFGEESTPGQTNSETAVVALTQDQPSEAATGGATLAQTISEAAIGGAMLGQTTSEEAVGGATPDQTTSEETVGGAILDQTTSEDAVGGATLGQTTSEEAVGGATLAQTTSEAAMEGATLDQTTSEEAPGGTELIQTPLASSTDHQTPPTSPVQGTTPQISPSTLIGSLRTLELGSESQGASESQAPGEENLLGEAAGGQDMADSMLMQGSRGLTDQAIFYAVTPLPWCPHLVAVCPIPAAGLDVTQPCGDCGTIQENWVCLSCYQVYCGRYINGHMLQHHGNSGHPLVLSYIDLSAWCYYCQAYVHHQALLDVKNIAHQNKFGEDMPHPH
The experiment in a line: ELISA-based HDAC activity assay. It counts as biochemical.

Series [6] relates to global histone H3 lysine 9 (H3K9) acetylation in HCT116. The experiment in a line: Western blot analysis of global histone H3 lysine 9 acetylation. The class given is cell-based, human. The following applies: for concentration at which significant induction of global acetylation was observed: HCT116, 24 h exposure, tested at 10 nM, 100 nM, 1 μM. On the technique in general: A western blot detects proteins with antibodies after separation by electrophoresis.

The test system of series [7] is HCT116 colorectal cancer cell line. Conditions: read-out: GI50 previously reported; HCT 116 cell growth inhibition; cited from earlier work.
The conditions of series [8]: mouse serum, mouse microsomal proteins, cellular proteins; cited from earlier work.
Series [9] in a line: NCI nontumored animal toxicity assay for acute toxicity. The class given is in vivo. The following applies: highest dose of 50 mg/kg tested.

HDAC1, sequence (Q13547 whole entry): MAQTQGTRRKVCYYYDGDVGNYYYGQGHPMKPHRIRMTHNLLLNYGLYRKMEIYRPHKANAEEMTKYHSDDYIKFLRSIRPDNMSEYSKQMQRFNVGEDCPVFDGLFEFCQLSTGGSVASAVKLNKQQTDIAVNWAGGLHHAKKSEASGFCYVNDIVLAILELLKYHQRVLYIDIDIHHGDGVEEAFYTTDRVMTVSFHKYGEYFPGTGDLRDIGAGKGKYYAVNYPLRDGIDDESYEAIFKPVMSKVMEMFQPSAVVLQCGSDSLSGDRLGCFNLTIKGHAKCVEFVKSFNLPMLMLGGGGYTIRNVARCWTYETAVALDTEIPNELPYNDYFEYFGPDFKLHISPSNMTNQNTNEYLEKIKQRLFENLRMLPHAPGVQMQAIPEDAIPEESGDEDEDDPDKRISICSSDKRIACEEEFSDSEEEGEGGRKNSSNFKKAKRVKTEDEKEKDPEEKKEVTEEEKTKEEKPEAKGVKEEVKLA
HDAC2, sequence (Q92769 whole entry): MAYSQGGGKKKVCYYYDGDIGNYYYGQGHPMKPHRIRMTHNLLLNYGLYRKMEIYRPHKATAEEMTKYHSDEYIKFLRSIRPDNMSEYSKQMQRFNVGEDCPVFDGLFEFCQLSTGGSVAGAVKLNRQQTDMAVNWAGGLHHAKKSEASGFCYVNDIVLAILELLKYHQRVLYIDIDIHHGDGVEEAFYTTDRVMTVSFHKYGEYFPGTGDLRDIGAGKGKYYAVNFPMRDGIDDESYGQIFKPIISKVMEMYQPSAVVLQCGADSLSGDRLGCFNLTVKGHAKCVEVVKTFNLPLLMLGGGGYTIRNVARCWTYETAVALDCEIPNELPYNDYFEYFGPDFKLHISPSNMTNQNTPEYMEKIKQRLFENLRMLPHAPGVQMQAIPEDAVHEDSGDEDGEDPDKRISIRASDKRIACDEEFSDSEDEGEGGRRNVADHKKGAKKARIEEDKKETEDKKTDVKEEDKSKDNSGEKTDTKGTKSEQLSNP
HDAC3, sequence (O15379 whole entry): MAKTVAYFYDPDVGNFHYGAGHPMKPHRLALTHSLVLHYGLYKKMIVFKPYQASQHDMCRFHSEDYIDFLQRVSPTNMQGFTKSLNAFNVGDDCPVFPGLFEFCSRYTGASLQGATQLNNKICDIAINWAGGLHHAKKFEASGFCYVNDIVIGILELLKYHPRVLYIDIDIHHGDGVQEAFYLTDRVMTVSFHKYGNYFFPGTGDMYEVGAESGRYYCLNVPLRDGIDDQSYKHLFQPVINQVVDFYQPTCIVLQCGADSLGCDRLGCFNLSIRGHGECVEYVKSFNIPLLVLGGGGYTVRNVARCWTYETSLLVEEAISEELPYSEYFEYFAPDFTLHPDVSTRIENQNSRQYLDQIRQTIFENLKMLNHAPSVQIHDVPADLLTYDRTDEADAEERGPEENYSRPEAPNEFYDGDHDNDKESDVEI
HDAC3, sequence (Q9Y618 whole entry partner): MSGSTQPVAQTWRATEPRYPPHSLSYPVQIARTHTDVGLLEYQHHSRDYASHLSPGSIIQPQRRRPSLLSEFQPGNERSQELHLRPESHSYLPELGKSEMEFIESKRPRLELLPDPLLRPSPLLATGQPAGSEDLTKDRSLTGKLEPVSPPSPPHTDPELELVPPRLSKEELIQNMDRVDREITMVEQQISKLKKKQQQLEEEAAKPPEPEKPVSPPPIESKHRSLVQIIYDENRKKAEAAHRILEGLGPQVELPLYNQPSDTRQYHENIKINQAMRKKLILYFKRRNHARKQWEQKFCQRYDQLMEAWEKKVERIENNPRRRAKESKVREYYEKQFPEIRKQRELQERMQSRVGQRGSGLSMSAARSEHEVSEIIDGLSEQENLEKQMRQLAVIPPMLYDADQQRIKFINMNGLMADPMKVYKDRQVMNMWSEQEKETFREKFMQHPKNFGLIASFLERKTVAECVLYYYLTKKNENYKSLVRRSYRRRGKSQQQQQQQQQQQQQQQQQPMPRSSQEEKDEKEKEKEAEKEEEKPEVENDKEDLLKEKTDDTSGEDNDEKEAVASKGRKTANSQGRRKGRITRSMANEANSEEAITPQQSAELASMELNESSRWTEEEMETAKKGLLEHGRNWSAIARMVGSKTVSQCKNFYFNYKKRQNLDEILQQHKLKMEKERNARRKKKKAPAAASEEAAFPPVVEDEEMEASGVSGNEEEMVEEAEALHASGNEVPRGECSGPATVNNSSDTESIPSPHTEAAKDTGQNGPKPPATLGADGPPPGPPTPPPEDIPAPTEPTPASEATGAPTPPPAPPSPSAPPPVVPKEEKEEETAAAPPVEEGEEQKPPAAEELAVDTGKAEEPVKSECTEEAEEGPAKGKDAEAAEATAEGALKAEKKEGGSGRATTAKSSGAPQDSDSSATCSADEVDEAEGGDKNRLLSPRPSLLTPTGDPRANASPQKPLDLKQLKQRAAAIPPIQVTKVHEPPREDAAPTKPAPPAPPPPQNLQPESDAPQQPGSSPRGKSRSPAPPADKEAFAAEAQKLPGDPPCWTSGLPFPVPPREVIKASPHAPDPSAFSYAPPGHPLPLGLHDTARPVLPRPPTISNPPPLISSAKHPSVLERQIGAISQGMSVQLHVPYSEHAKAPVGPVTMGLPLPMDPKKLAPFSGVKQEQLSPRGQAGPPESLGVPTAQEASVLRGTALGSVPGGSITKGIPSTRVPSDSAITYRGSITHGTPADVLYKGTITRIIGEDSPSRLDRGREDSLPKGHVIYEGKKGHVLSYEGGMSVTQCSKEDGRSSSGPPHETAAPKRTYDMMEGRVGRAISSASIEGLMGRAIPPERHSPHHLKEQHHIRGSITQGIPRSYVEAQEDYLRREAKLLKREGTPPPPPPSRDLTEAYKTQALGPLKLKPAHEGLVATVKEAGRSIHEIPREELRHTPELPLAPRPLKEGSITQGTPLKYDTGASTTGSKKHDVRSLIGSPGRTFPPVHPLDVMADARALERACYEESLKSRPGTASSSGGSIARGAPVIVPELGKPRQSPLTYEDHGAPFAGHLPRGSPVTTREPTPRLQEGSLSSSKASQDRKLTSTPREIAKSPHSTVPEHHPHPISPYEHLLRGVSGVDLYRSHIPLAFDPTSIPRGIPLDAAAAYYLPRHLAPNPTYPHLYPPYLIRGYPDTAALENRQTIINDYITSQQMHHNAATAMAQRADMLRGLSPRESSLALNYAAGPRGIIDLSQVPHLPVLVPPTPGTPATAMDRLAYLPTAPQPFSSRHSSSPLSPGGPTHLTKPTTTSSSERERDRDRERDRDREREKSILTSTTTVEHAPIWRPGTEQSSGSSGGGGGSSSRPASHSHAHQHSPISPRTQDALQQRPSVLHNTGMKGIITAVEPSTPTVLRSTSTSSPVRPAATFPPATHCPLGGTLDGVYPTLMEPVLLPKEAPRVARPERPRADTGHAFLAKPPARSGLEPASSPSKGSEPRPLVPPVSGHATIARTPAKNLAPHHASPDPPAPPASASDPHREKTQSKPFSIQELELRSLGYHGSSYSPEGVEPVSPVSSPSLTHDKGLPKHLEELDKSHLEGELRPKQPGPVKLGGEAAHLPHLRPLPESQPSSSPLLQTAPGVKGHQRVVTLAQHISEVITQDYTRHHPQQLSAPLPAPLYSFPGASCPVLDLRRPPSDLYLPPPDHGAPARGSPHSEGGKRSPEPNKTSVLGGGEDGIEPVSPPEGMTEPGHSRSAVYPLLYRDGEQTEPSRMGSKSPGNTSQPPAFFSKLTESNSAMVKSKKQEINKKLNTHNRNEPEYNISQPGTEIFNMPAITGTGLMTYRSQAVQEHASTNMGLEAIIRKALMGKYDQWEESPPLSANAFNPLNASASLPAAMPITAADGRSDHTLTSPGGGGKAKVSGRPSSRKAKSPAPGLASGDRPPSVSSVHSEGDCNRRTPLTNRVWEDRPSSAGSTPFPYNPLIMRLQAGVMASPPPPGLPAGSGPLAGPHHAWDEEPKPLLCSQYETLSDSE

In the case of `CCCCCCCC(=O)SCC/C=C/[C@@H]1CC(=O)NCCOCCOCC(=O)N[C@@H](C(C)C)C(=O)O1` [Analogue 6], in series [1] (2 μM), the “inhibition of HDAC1, single concentration screen” value is recorded as “significantly”. Further, the “inhibition of HDAC2, single concentration screen” value in series [2] (2 μM) is recorded as “significantly”. Further, the “inhibition of HDAC3, single concentration screen” value in series [3] (2 μM) was “significantly”.

Consider `CCCCCCCC(=O)SCC/C=C/[C@@H]1CC(=O)NCc2cccc(n2)CN(C)CC(=O)N[C@@H](C(C)C)C(=O)O1` [Analogue 8], for which, in [4], the “GI50 in the dose response assay (in words)” value is given as “micromolar GI50s”. Further, in [5] (1 μM), the “inhibition of HDAC6, single concentration screen” value is “slightly greater inhibition of HDAC6 compared to 6 and 7”.

With `CCCCCCCC(=O)SCC/C=C/[C@@H]1CC(=O)NCc2cccc(n2)CN(Cc2cccc3ccccc23)CC(=O)N[C@@H](C(C)C)C(=O)O1` [Analogue 13], the global acetylation observed result in series [6] (HCT116, even at 100 nM) is given as “hardly any global acetylation”.

By GI50 is commonly meant the concentration that inhibits growth by half. On to `CCCCCCCC(=O)SCC/C=C/[C@@H]1CC(=O)NCc2nc(cs2)C2=N[C@@](C)(CS2)C(=O)N[C@@H](C(C)C)C(=O)O1` [Largazole], for which the “concentration at which significant induction of global acetylation was observed” value in [6] is reported as 10 nM. Also, the concentration for 50% growth inhibition (GI50) in series [7] was 44 nM. Further, the metabolic conversion entry in series [8] is “rapidly converted to the active metabolite largazole thiol”.

Take `CCCCCCCC(=O)SCC/C=C/[C@@H]1CC(=O)NCc2cccc(n2)-c2cccc(n2)C(=O)N[C@@H](C(C)C)C(=O)O1` [Analogue 7]: in series [4] (NCI-60 dose response), the “concentration inhibiting the growth of most of the cancer cell lines” value was less than 10 nM. Besides, the “GI50 in the dose response assay (in words)” value in series [4] is recorded as “low nanomolar”. For the same molecule, the “concentration at which significant induction of global acetylation was observed” value in series [6] turned out to be 10 nM. The “inhibition of HDAC1, single concentration screen” value in series [1] (250 nM) is reported as “significantly”. In series [2] (250 nM), the “inhibition of HDAC2, single concentration screen” value is reported as “significantly”. In addition, the “inhibition of HDAC3, single concentration screen” value in series [3] (250 nM) is given as “significantly”. Also, the “selectivity for class I HDAC proteins (HDAC1, HDAC2, HDAC3) over class II HDAC6” value in [5] (from IC50 values) is recorded as “at least 464 fold”. Also, the acute toxicity result in series [9] was “no signs of toxicity; also recorded: well tolerated”.
